Reference: patent US20250236878A1 (priority 2019, published 2025)
Read-outs that look alike come from different tables or passages of the source.

Experiments:
[1] = test system: field mustard (Brassica rapa) seedlings; test: Root hair and lateral root elongation in liquid-culture grown field mustard seedlings (Example 13); details: for Experiment A: Average Root Hair Length Per Plant (mm) / Experiment B: Average Length of Three Longest Lateral Roots Per Plant (mm) / Experiment A: Average Root Hair Length Per Plant, % of UTC / Experiment B: Average Length of Three Longest Lateral Roots Per Plant, % of UTC: field mustard seedlings, peptide 10 μM; for Experiment A: Average Root Hair Length Per Plant (mm) / Experiment B: Average Length of Three Longest Lateral Roots Per Plant (mm) / average lateral root length compared to untreated control / average root hair length compared to untreated control / increases in average lateral root length relative to control / increases in root hair length relative to control: liquid culture; for Experiment A: Average Root Hair Length Per Plant (mm) / Experiment B: Average Length of Three Longest Lateral Roots Per Plant (mm): about three days; for Experiment A: Average Root Hair Length Per Plant (mm): UTC = 0.137; for Experiment B: Average Length of Three Longest Lateral Roots Per Plant (mm): UTC = 0.632; for average lateral root length compared to untreated control / average root hair length compared to untreated control / increases in average lateral root length relative to control / increases in root hair length relative to control: approximately three days
[2] = test system: Citrus trees infected with Candidatus Liberibacter asiaticus (CLas); set-up: species or system Citrus sinensis; details: in vivo
[3] = test system: Citrus trees infected with Candidatus Liberibacter asiaticus (CLas); set-up: species or system Citrus sinensis; details: in vivo; remark: listed apart in the source
[4] = test system: Citrus trees infected with CLas; test: Recovery composition trunk injection: 'Valencia' orange fruit yield (Examples 3, 19); type: in vivo, Citrus sinesis; details: for Average Yield (Relative to Untreated) / Average Yield (kg per tree): 'Valencia' orange; for Average Yield (Relative to Untreated) / Average Yield (kg per tree) / increased yield compared to the untreated control: trunk injection; for increased yield compared to the untreated control: 'Valencia' trees; for yield, average relative to control: 'Valencia', combined average of 2 sites (Table 56)
[5] = test system: Candidatus Liberibacter asiaticus (CLas); details: in vivo
[6] = test system: Citrus trees infected with CLas; set-up: species or system Citrus sinesis; details: in vivo
[7] = test system: Citrus trees infected with Candidatus Liberibacter asiaticus; type: in vivo, Citrus x paradisi
[8] = test system: corn hybrids Beck's 6127 BHMF and 6127 DVMF; details: in vivo
[9] = test system: Citrus trees infected with Candidatus Liberibacter asiaticus; set-up: species or system Citrus x paradisi; details: in vivo
[10] = test system: Citrus trees infected with CLas; type: in vivo, Citrus x paradisi; Citrus sinesis; details: average of 'Ruby Red' and 'Valencia'
Text: Treatments as previously described in Example 3; β-1,3-Endoglucanase from barley SEQ ID NO: 731 (Treatment 1) and Bt.4Q7Flg22 from Bacillus thurigiensis SEQ ID NO: 226 (Treatment 5) increased fruit yield (kg/tree) as described in Table 56. Fruit quality, and juice quality of ‘Valencia’ oranges are described in Table 57.
For direct comparison of the treatment results between grapefruit (‘Ruby Red’) and orange (‘Valencia’) are referenced in Table 56 above.

[11] = test system: HLB-infected citrus trees; set-up: species or system Citrus sinesis; Citrus paradisi; details: in vivo
[12] = test system: HLB-infected citrus trees; test: Citrus trials of Examples 20-24: fruit yield, size, count and drop, average over orange and grapefruit trials; type: in vivo, Citrus sinesis; Citrus paradisi
Procedure: All fruit with a diameter greater than or equal to 1.6 inches (40 mm) were hand-picked and collected for each tree. The total “Fruit Weight” (in kilograms) per individual tree was measured and recorded. Trees with total fruit weights less than or greater than 2 standard deviations (2STDEV) from the trial mean were considered to be outliers and removed from the dataset. Fruit size was assessed as the “Average Weight per Fruit” in grams (weight of 20 random fruit per tree, divided by 20) and “Average Fruit Diameter” in millimeters, as described in Example 1. The “Average Fruit Count” per tree was assessed as the total “Fruit Weight” divided by “Average Weight per Fruit”. “Fruit Drop” was assessed as for Example 1. Fruit quality was assessed as for Example 2, with the exception that one set of fruit consisted for 15 total fruit, each corresponding to a sampling of 3 fruit from 5 trees of the same experimental treatment block. Each set of 15 fruit were weighed (gram; g) and then juiced together. Average yield, % fruit drop, fruit size, and juice quality for each of the tested compositions are described in Examples 20-24.

Compound: GGIRTAITGNE (listed as Vigna angularis) [SEQ ID NO: 748]
- Experiment A: Average Root Hair Length Per Plant (mm) [1]: 0.151 mm
- Experiment B: Average Length of Three Longest Lateral Roots Per Plant (mm) [1]: 0.929 mm
- Experiment A: Average Root Hair Length Per Plant, % of UTC [1]: (110% of UTC)
- Experiment B: Average Length of Three Longest Lateral Roots Per Plant, % of UTC [1]: (147% of UTC)
- average lateral root length compared to untreated control [1]: Increased
- average root hair length compared to untreated control [1]: increased

Compound: GGIRAAPT (listed as Physcomitrella patens) [SEQ ID NO: 745]
- Experiment A: Average Root Hair Length Per Plant (mm) [1]: 0.145 mm
- Experiment B: Average Length of Three Longest Lateral Roots Per Plant (mm) [1]: 0.853 mm
- Experiment A: Average Root Hair Length Per Plant, % of UTC [1]: (105% of UTC)
- Experiment B: Average Length of Three Longest Lateral Roots Per Plant, % of UTC [1]: (135% of UTC)
- average lateral root length compared to untreated control [1]: Increased
- average root hair length compared to untreated control [1]: increased

Compound: DRLSSGKRINSAKDDAAGLAIA (listed as Bacillus thuringiensis) [Bt.4Q7Flg22Syn01, Modified FLG22-Bt4Q7 (S13K)]
- total increased yield (kg) per tree [2]: 26%
- Brix [3]: 9.4
- juice content [3]: 46%

Compound: GGIRVAATGKER (Glycine max) [SEQ ID NO: 608]
- average lateral root length compared to untreated control [1]: Increased
- average root hair length compared to untreated control [1]: increased

Compound: DRLSSGKRINSASDDAAGLAIA (listed as Bacillus thuringiensis) [Bt.4Q7Flg22, Flg22 flagellin-associated polypeptide from Bacillus thuringiensis strain 4Q7]
- Average Yield (Relative to Untreated) [4]: (119%)
- Average Yield (kg per tree) [4]: 48.1 kg per tree
- increased yield compared to the untreated control [4]: 7.8 kg per tree
- yield, average relative to control [4]: 113%
- decreased bacterial titers relative to the untreated control [5]: 20%
- reduction in CLas bacterial titers compared to initial levels [5]: 16%
- Average Fruit Diameter (Relative to Untreated) [6]: (101%)
- Average Fruit Diameter (mm) [6]: 60.72 mm
- Brix:CA Ratio [6]: 12.11
- Brix:CA Ratio (Relative to Untreated) [6]: (+0.86)
- fruit size and ^oBrixc to Citric Acid ratio (Brix:CA) relative to the untreated control [6]: increased
- Average Yield (Relative to Untreated) ([7]; in vivo): (108%)
- Average Yield (kg per tree) ([7]; in vivo): 37.2 kg per tree
- increased yield compared to the untreated control ([7]; in vivo): 2.6 kg per tree
- total increased yield (kg) per tree [2]: 33%
- average yield benefit over the control corn plants [8]: +6.44 flu/Ac
- fruit size, juice volume, % juice content and ^oBrixc to Citric Acid ratio (Brix:CA) relative to the untreated control [9]: increased
- Average Yield (Relative to Untreated), Average of 2 sites [10]: (113%)

Compound: GGIRRAPTGNER [SEQ ID NO: 751]
- average lateral root length compared to untreated control [1]: Increased
- average root hair length compared to untreated control [1]: increased

Compound: GGIRRARTGNE (listed as Vigna radiata) [SEQ ID NO: 750]
- Experiment A: Average Root Hair Length Per Plant (mm) [1]: 0.147 mm
- Experiment A: Average Root Hair Length Per Plant, % of UTC [1]: (107% of UTC)
- average lateral root length compared to untreated control [1]: Increased
- average root hair length compared to untreated control [1]: increased

Compound: GGARAAPAGEER (Brachypodium distachyon) [SEQ ID NO: 747]
- Experiment A: Average Root Hair Length Per Plant (mm) [1]: 0.137 mm
- Experiment B: Average Length of Three Longest Lateral Roots Per Plant (mm) [1]: 0.959 mm
- Experiment A: Average Root Hair Length Per Plant, % of UTC [1]: (99% of UTC)
- Experiment B: Average Length of Three Longest Lateral Roots Per Plant, % of UTC [1]: (152% of UTC)
- average lateral root length compared to untreated control [1]: Increased
- average root hair length compared to untreated control [1]: did not improve

Compound: GGIRAAPTGKER [SEQ ID NO: 754]
- average lateral root length compared to untreated control [1]: Increased
- average root hair length compared to untreated control [1]: increased

Compound: GGIRATPTENER (Glycine max) [SEQ ID NO: 607]
- average lateral root length compared to untreated control [1]: Increased
- average root hair length compared to untreated control [1]: increased

Compound: GIRDAPAGNE (listed as Macleaya cordata) [SEQ ID NO: 746]
- Experiment A: Average Root Hair Length Per Plant (mm) [1]: 0.165 mm
- Experiment B: Average Length of Three Longest Lateral Roots Per Plant (mm) [1]: 0.822 mm
- Experiment A: Average Root Hair Length Per Plant, % of UTC [1]: (120% of UTC)
- Experiment B: Average Length of Three Longest Lateral Roots Per Plant, % of UTC [1]: (130% of UTC)
- average lateral root length compared to untreated control [1]: Increased
- average root hair length compared to untreated control [1]: increased

Compound: GGIRASPTGNER [SEQ ID NO: 755]
- average lateral root length compared to untreated control [1]: Increased
- average root hair length compared to untreated control [1]: increased

Compound: N[C@@H](CS)C(=O)O [L-Cysteine, L-cysteine]
- Average Yield (Relative to Untreated) [4]: (105%)
- Average Yield (kg per tree) [4]: 42.3 kg per tree
- increased yield compared to the untreated control [4]: +2.0 kg per tree
- yield, average relative to control [4]: 103%
- Average Fruit Diameter (Relative to Untreated) [6]: (104%)
- Average Fruit Diameter (mm) [6]: 62.52 mm
- Brix:CA Ratio [6]: 12.76
- Brix:CA Ratio (Relative to Untreated) [6]: (+1.51)
- fruit size and ^oBrixc to Citric Acid ratio (Brix:CA) relative to the untreated control [6]: increased
- Average Yield (Relative to Untreated) ([7]; […], trunk injection): (101%)
- Average Yield (kg per tree) ([7]; […], trunk injection): 34.8 kg per tree
- Average Yield (Relative to Untreated), Average of 2 sites [10]: (103%)

Compound: GGIRDAPTGNER [SEQ ID NO: 752]
- average lateral root length compared to untreated control [1]: Increased
- average root hair length compared to untreated control [1]: increased

Compound: GGIRAARTGNER [SEQ ID NO: 753]
- average lateral root length compared to untreated control [1]: Increased
- average root hair length compared to untreated control [1]: increased

Compound: GGISASPTGN (listed as Lactuca sativa) [SEQ ID NO: 749]
- Experiment A: Average Root Hair Length Per Plant (mm) [1]: 0.182 mm
- Experiment B: Average Length of Three Longest Lateral Roots Per Plant (mm) [1]: 1.058 mm
- Experiment A: Average Root Hair Length Per Plant, % of UTC [1]: (132% of UTC)
- Experiment B: Average Length of Three Longest Lateral Roots Per Plant, % of UTC [1]: (168% of UTC)
- average lateral root length compared to untreated control [1]: Increased
- average root hair length compared to untreated control [1]: increased
- increases in average lateral root length relative to control [1]: +68%
- increases in root hair length relative to control [1]: +32%

Compound: GGIRAAPTGNER (Glycine max) [GmRHPP, Root Hair Promoting Peptide, Glycine max]
- Experiment A: Average Root Hair Length Per Plant (mm) [1]: 0.172 mm
- Experiment B: Average Length of Three Longest Lateral Roots Per Plant (mm) [1]: 0.971 mm
- Experiment A: Average Root Hair Length Per Plant, % of UTC [1]: (125% of UTC)
- Experiment B: Average Length of Three Longest Lateral Roots Per Plant, % of UTC [1]: (154% of UTC)
- average lateral root length compared to untreated control [1]: Increased
- average root hair length compared to untreated control [1]: increased
- increases in average lateral root length relative to control [1]: +54%
- increases in root hair length relative to control [1]: +25%
- reduction in CLas bacterial titers compared to initial levels [5]: 17%
- ^oBrixc:Citric Acid Ratio and pounds-solids per tree [11]: increased
- more total sugar than control trees treated with surfactant alone, on average [11]: 13.500
- increased yield (kg fresh fruit per tree) relative to control trees treated with surfactant control alone, on average ([12]; foliar (Table 73)): 13.9%
- decrease in fruit drop relative to surfactant control, on average ([12]; foliar (Table 74)): 22%
- more fruit retained at harvest relative to surfactant control, on average ([12]; foliar (Table 74)): 19%
- effect on fruit size ([12]; foliar (Table 75)): no effect
- fruit weigh more than fruit from control trees treated with surfactant alone, on average ([12]; foliar (Table 75)): 6.2%
